Results from patent US10202364B2, “Forms and compositions of an ERK inhibitor” (Celgene CAR LLC, priority 2014, dated 2019).
Where two headings read alike, the source gives them in different places.

How the values were obtained:
[1] = Single oral dose pharmacokinetic (PK) study in dogs, fasted and fed; assay type: in vivo; settings: 15 mg/kg oral suspension; for AUC(0-t) / Cmax: both sexes, dog, in vivo, po, 15 mg/kg
Method: The pharmacokinetics of compound 1 (free base, administered to dosing group 1), compound 2 (phosphate salt, administered to dosing group 4), compound 4 (hydrochloride salt, administered to dosing group 2), compound 5 (bromide salt, administered to dosing group 5), and compound 6 (sulfate salt, administered to dosing group 3) were evaluated in dogs (2/sex/group) in a parallel design study. In addition, the effect of food on the systemic exposure to compounds 1, 2, 4, 5 and 6 was also evaluated. Compounds 1, 2, 4, 5 and 6 were orally administered at 15 mg/kg to dogs in a fasted state (overnight fast) on day 1 and administered under fed conditions (a meal was provided one hour prior to dosing) on day 9. Doses were administered as a suspension in 5% Captisol/0.2% Tween 80/0.05M Citrate buffer (compound 1) and 5% Captisol/0.2% Tween (compounds 2, 4, 5 and 6). Animals were habituated (days 2 to 8) to consume their entire daily ration (˜400 g) in 1 hour. Pharmacokinetic samples were collected on days 1 and 9 at 0, 0.5, 1, 2, 4, 6, 8, 12, and 24 hours after dosing.

[2] = Free base competitive slurries / form conversion (XRPD and DSC); assay type: physicochemical; settings: compound 1 free base, stirred in methanol at room temperature for 24 hours
Method: Free Base Competitive Slurries:
Three competitive slurry experiments were performed:
1: Form A (20.0 mg)+Form C (20.4 mg) in 0.4 ml ethyl acetate
2: Form B (15.7 mg)+Form C (15.6 mg) in 0.3 ml ethyl acetate
3: Form A (13.3 mg)+Form B (11.5 mg) in 0.3 ml ethyl acetate
The three slurries were stirred vigorously for three days. Solids were then filtered and dried.
About 20 mg Form C was stirred in methanol (˜2 mL) at room temperature for 24 hours. Solids were filtered and dried.

[3] = Solubility in water at ambient temperature; assay type: physicochemical; settings: for pH at 48 hrs: pH of the solubility sample in water at 48 hrs; for Conc. (μg/mL) at 24 hours / Conc. (μg/mL) at 48 hours: water, ambient temperature, free base-equivalent value, HPLC/UV; for Conc. (μg/mL) at 24 hours: shaken 24 hours; for Conc. (μg/mL) at 48 hours: shaken 48 hours
Method: Each of compounds 1 through 9 were weighed into separate 8 mL clear glass vials. After addition of 3.2 mL of water, the vials were capped and shaken on an orbital shaker at 300 RPM at ambient temperature for 24 hours. The samples were removed from the shaker and the pH of each was measured using a calibrated pH meter. Next, a portion of the each sample was withdrawn and filtered using a PVDF-membrane syringe filter. The filtrate was analyzed using HPLC/UV with appropriate dilution. The solubility was reported as free base-equivalent value because the free base was used as the standard for HPLC analysis. The rest of the samples were shaken for another 24 hours for 48-hour solubility measurement using the same procedure. After the 48-hour solubility tests were run, the solid residues were recovered through filtration using 0.2 μm Nylon-membrane centrifuge tube filters at 14000 RPM for 5 min and analyzed using XRPD.
For the bis-phosphate complex and bis-sulfate salt, measurements were only performed at the 24-hour time point.

[4] = test system: one or both of ERK1 and ERK2 kinases; settings: see Table A of the '230 publication; cited from earlier work
[5] = Hygroscopicity by Dynamic Vapor Sorption (DVS); assay type: physicochemical; settings: at 95% relative humidity
Method: Hygroscopicity was determined on a Surface Measurement Systems DVS-1 or DVS-Advantage Dynamic Vapor Sorption analyzer. A typical sample size of 5 to 20 mg was loaded into the DVS instrument sample pan and the sample was analyzed on a DVS automated sorption analyzer at room temperature. The relative humidity (RH) was increased from 0 or 5% to 90 or 95% RH at 5 or 10% RH steps. The RH was then decreased in a similar manner to accomplish a full absorption/desorption cycle. In some cases a second absorption/desorption cycle was performed.

[6] = Phosphate interconversions from polymorph screen (slurries, XRPD); assay type: physicochemical; settings: RT, 5 days
Description: Phosphate Interconversions

[7] = fasted, day 1, mean, read-out: AUClast, Day 1 (Fasted)
[8] = fasted, day 1, mean, read-out: Cmax, Day 1 (Fasted)
[9] = fed, day 9, mean, read-out: AUClast, Day 9 (Fed)
[10] = fed, day 9, mean, read-out: Cmax, Day 9 (Fed)

## C=CC(=O)Nc1cc(C)ccc1Nc1nc(Nc2cc(OC)ncc2C)ncc1C(F)(F)F [Compound 1, Form C, N-(2-((2-((2-methoxy-5-methylpyridin-4-yl)amino)-5-(trifluoromethyl)pyrimidin-4-yl)amino)-5-methylphenyl)acrylamide]
[1]; fasted, day 1, mean
  AUClast, Day 1 (Fasted): 286 ng·h/mL
  Cmax, Day 1 (Fasted): 0.0981 µg/mL
[1]; fed, day 9, mean
  AUClast, Day 9 (Fed): 1890 ng·h/mL
  Cmax, Day 9 (Fed): 0.293 µg/mL
[2]
  form after slurry (XRPD and DSC): converted to Form B

## C=CC(=O)Nc1cc(C)ccc1Nc1nc(Nc2cc(OC)ncc2C)ncc1C(F)(F)F [Compound 1, N-(2-((2-((2-methoxy-5-methylpyridin-4-yl)amino)-5-(trifluoromethyl)pyrimidin-4-yl)amino)-5-methylphenyl)acrylamide]
[3]
  pH at 48 hrs: 6.33
  Conc. (μg/mL) at 24 hours: 0.07 µg/mL
  Conc. (μg/mL) at 48 hours: 0.05 µg/mL
[4]
  inhibition of one or both of ERK1 and ERK2 kinases: covalent, irreversible inhibition

## C=CC(=O)Nc1cc(C)ccc1Nc1nc(Nc2cc(OC)ncc2C)ncc1C(F)(F)F.O=P(O)(O)O [Compound 2, Form A]
[1]; [7]
  AUC(0-t): 1080 ng·h/mL
[1]; [8]
  Cmax: 0.345 µg/mL
[1]; [9]
  AUC(0-t): 3880 ng·h/mL
[1]; [10]
  Cmax: 0.79 µg/mL
[5]
  water uptake: Up to 3.8%

## C=CC(=O)Nc1cc(C)ccc1Nc1nc(Nc2cc(OC)ncc2C)ncc1C(F)(F)F.O=P(O)(O)O [Compound 2]
[3]
  pH at 48 hrs: 2.48
  Conc. (μg/mL) at 24 hours: 19.40 µg/mL
  Conc. (μg/mL) at 48 hours: 91.69 µg/mL

## C=CC(=O)Nc1cc(C)ccc1Nc1nc(Nc2cc(OC)ncc2C)ncc1C(F)(F)F [Compound 3]
[3]
  Conc. (μg/mL) at 24 hours: 113 µg/mL

## C=CC(=O)Nc1cc(C)ccc1Nc1nc(Nc2cc(OC)ncc2C)ncc1C(F)(F)F.Cl [Compound 4, Form A]
[1]; [7]
  AUC(0-t): 856 ng·h/mL
[1]; [8]
  Cmax: 0.323 µg/mL
[1]; [9]
  AUC(0-t): 3350 ng·h/mL
[1]; [10]
  Cmax: 0.818 µg/mL

## C=CC(=O)Nc1cc(C)ccc1Nc1nc(Nc2cc(OC)ncc2C)ncc1C(F)(F)F.Cl [Compound 4]
[3]
  pH at 48 hrs: 2.29
  Conc. (μg/mL) at 24 hours: 162.33 µg/mL
  Conc. (μg/mL) at 48 hours: 134.08 µg/mL

## Br.C=CC(=O)Nc1cc(C)ccc1Nc1nc(Nc2cc(OC)ncc2C)ncc1C(F)(F)F [Compound 5, Form A]
[1]; [7]
  AUC(0-t): 1680 ng·h/mL
[1]; [8]
  Cmax: 0.393 µg/mL
[1]; [9]
  AUC(0-t): 5030 ng·h/mL
[1]; [10]
  Cmax: 0.826 µg/mL

## Br.C=CC(=O)Nc1cc(C)ccc1Nc1nc(Nc2cc(OC)ncc2C)ncc1C(F)(F)F [Compound 5]
[3]
  pH at 48 hrs: 2.27
  Conc. (μg/mL) at 24 hours: 190.63 µg/mL
  Conc. (μg/mL) at 48 hours: 207.42 µg/mL

## C=CC(=O)Nc1cc(C)ccc1Nc1nc(Nc2cc(OC)ncc2C)ncc1C(F)(F)F [Compound 6, Form A]
[1]; fasted, day 1, mean
  AUClast, Day 1 (Fasted): 1120 ng·h/mL
  Cmax, Day 1 (Fasted): 0.364 µg/mL
[1]; fed, day 9, mean
  AUClast, Day 9 (Fed): 5590 ng·h/mL
  Cmax, Day 9 (Fed): 0.74 µg/mL

## C=CC(=O)Nc1cc(C)ccc1Nc1nc(Nc2cc(OC)ncc2C)ncc1C(F)(F)F [Compound 6]
[3]
  pH at 48 hrs: 1.98
  Conc. (μg/mL) at 24 hours: 560.02 µg/mL
  Conc. (μg/mL) at 48 hours: 409.83 µg/mL

## C=CC(=O)Nc1cc(C)ccc1Nc1nc(Nc2cc(OC)ncc2C)ncc1C(F)(F)F [Compound 7]
[3]
  Conc. (μg/mL) at 24 hours: 1170 µg/mL

## C=CC(=O)Nc1cc(C)ccc1Nc1nc(Nc2cc(OC)ncc2C)ncc1C(F)(F)F.Cc1ccc(S(=O)(=O)O)cc1 [Compound 8]
[3]
  pH at 48 hrs: 2.00
  Conc. (μg/mL) at 24 hours: 218.34 µg/mL
  Conc. (μg/mL) at 48 hours: 184.83 µg/mL

## C=CC(=O)Nc1cc(C)ccc1Nc1nc(Nc2cc(OC)ncc2C)ncc1C(F)(F)F.O=S(=O)(O)c1ccccc1 [Compound 9]
[3]
  pH at 48 hrs: 2.10
  Conc. (μg/mL) at 24 hours: 173.63 µg/mL
  Conc. (μg/mL) at 48 hours: 143.49 µg/mL

## C=CC(=O)Nc1cc(C)ccc1Nc1nc(Nc2cc(OC)ncc2C)ncc1C(F)(F)F.O=P(O)(O)O [Form B]
[6]; slurry in EtOH
  XRPD Result: Form A + free base
[6]; slurry in MeCN
  XRPD Result: Form A
[6]; slurry in MeCN/water (1:1)
  XRPD Result: free base (Form D)
[6]; slurry in MeOH
  XRPD Result: free base (Form B)
[6]; slurry in acetone
  XRPD Result: Form A
